Experimental data as given in article PMC10254843, “Discovery of New 2-Phenylamino-3-acyl-1,4-naphthoquinones as Inhibitors of Cancer Cells Proliferation: Searching for Intra-Cellular Targets Playing a Role in Cancer Cells Survival” (Molecules, 2023).

Tests used:
[1] = Half-wave potentials by cyclic voltammetry; format: physicochemical; settings: for −E^I½ (mV): acetonitrile, platinum electrode, room temperature, negative of the potential; for half-wave potential: signed value
Description: Calculation of lipophilicity (ClogP) and molar refractivity (CMR) was assessed by using the ChemBioDraw Ultra 11.0 software and the obtained values are shown in Table 3. Redox potentials of 2-phenylamino-3-acyl-1,4-naphtoquinones 1–14 were measured by cyclic voltammetry at room temperature in acetonitrile as solvent using a platinum electrode and 0.1M tetraethylammonium tetrafluoroborate as the supporting electrolyte.

[2] = test system: non-tumorigenic HEK-293 (embryonic kidney cells); assay: MTT cell survival assay, non-tumorigenic HEK-293 cells; format: cell-based; settings: Homo sapiens, HEK293; MTT test; cells incubated at 37 °C for 48 h (Table 1 footnote); mean ± SEM, n = 3
Description: (§1) Human cancer cell lines from bladder (T24), prostate (DU–145), breast (MCF–7) and non-tumor HEK-293 cells were obtained from the American Type Culture Collection (ATCC, Manassas, VA, USA). The cultures were maintained at a density of 1–2 × 10^5 cells/mL and the medium was changed at 48- and 72-h intervals. They were cultured in high-glucose Dulbecco’s modified Eagle medium (Gibco, Grand Island, NY, USA) supplemented with 10% fetal calf serum, penicillin (100 U/mL) and streptomycin (100 μg/mL). All cultures were kept at 37 °C in 95% air/5% CO2 at 100% humidity. Phosphate-buffered saline (PBS) was purchased from Gibco. Cells were incubated at the indicated times at 37 °C with or without compounds 1–14 at various concentrations.
(§2) The cytotoxicity of the compounds 1–14 was assessed by following the reduction of MTT (3-(4,5-Dimethylthiazol-2-yl)-2,5-diphenyltetrazolium bromide) to formazan blue. […] Doxorubicin was used as a standard chemotherapeutic agent (positive control). Cells were washed twice with warm PBS and further incubated with MTT (0.5 mg/mL) for 2 h at 37 °C. Blue formazan crystals were solubilized by adding 100 µL DMSO/well, and the optical density of colored solutions was subsequently read at 550 nm in a microplate reader Tecan infinite M200 Pro (Männedorf, Switzerland). The compounds 1–14 were dissolved in DMSO (stock solution at 100 mM) and further diluted to be evaluated at the following concentrations: 0 μM, 1 μM, 10 μM, 20 μM, 40 μM, 60 μM, 80 μM and 100 μM. Results are expressed as % of MTT reduction compared to untreated control conditions. The IC50 values were calculated using the GraphPad Prism 8.0.2 software (San Diego, CA, USA).

[3] = test system: DU-145, MCF-7 and T24 cancer cells; assay: Antiproliferative activity over DU-145, MCF-7 and T24 cancer cells; format: cell-based, human; settings: summary of Table 1 (DU-145, MCF-7, T24)
Description: as §1
(§3) The cytotoxicity of the compounds 1–14 was assessed by following the reduction of MTT (3-(4,5-Dimethylthiazol-2-yl)-2,5-diphenyltetrazolium bromide) to formazan blue. Cells were seeded into 96-well plates at a density of 10,000 cells/well for 24 h and then they were further incubated for 24 h with or without the quinones. Doxorubicin was used as a standard chemotherapeutic agent (positive control). Cells were washed twice with warm PBS and further incubated with MTT (0.5 mg/mL) for 2 h at 37 °C. Blue formazan crystals were solubilized by adding 100 µL DMSO/well, and the optical density of colored solutions was subsequently read at 550 nm in a microplate reader Tecan infinite M200 Pro (Männedorf, Switzerland). The compounds 1–14 were dissolved in DMSO (stock solution at 100 mM) and further diluted to be evaluated at the following concentrations: 0 μM, 1 μM, 10 μM, 20 μM, 40 μM, 60 μM, 80 μM and 100 μM. Results are expressed as % of MTT reduction compared to untreated control conditions. The IC50 values were calculated using the GraphPad Prism 8.0.2 software (San Diego, CA, USA).

[4] = test system: T24 (Urinary bladder cancer cells); assay: MTT cell survival assay, T24 urinary bladder cancer cells; format: cell-based; settings: Homo sapiens; MTT test; cells incubated at 37 °C for 48 h (Table 1 footnote); mean ± SEM, n = 3
Description: as §1, §2

[5] = test system: HEK-293 cells/tumour cells; assay: Mean selective index, HEK-293 vs tumour cells; format: cell-based, human; settings: MSI = IC50 values HEK-293 cells/IC50 values tumour cells
Description: as §3

[6] = test system: MCF-7 (mammary cancer cells); assay: MTT cell survival assay, MCF-7 mammary cancer cells; format: cell-based; settings: Homo sapiens, MCF7; MTT test; cells incubated at 37 °C for 48 h (Table 1 footnote); mean ± SEM, n = 3
Description: as §1, §2

[7] = test system: DU-145 (prostate cancer cells); assay: MTT cell survival assay, DU-145 prostate cancer cells; format: cell-based; settings: Homo sapiens, MTT test, cells incubated at 37 °C for 48 h (Table 1 footnote), mean ± SEM, n = 3
Description: as §1, §2

TP53 = assay: RT-qPCR mRNA level of TP53 in DU-145 cells; format: cell-based, human; settings: DU145 cells, 24 h; compound 4 at 1 µM, compound 11 at 6 µM; normalized to B2M, 2^−∆∆Ct vs vehicle (1.00); mean ± SEM
Description: (§4) The […] cells were cultured as previously mentioned. […] Afterwards, they were washed with phosphate-buffered saline. The cellular lysate was prepared with E.Z.N.A.®RNA-Lock Reagent (Omega Bio-tek, Norcross, GA, USA) to preserve and immediately stabilize the total RNA for the subsequent gene expression assays. The total RNA isolated from the cells using the E.Z.N.A.®HP Total RNA Isolation Kit (Omega Bio-tek) was reverse-transcribed to cDNA using the AffinityScript QPCR cDNA Synthesis Kit (Agilent Technologies, Santa Clara, CA, USA) and 1000 ng of the RNA sample.
(§5) The cDNA synthesized was employed for qPCR using Brilliant III Ultra-Fast SYBR®Green QPCR Master Mix (Agilent Technologies) in an Mx3000P qPCR System (Agilent Technologies), employing a 96-well plate with 20 μL of PCR reaction per well and 10 pmol each of forward and reverse gene-specific primers. Nine genes were analyzed: B2M, Bcl2, CDC25A, CCN2, GSR, HDAC4, mTOR, TNF, TP53 and their quantitative real-time (qPCR) primer sequences are reported in Table S1 (supplementary material). The relative gene expressions were determined using Beta-2-microglobulin (B2M) as housekeeping, and the delta-delta Ct method (2^−∆∆Ct method) with regard to the vehicle-treated group (i.e., the reference group). Five biological replicates were used from each group (treated and reference group). […]

HDAC4 = assay: RT-qPCR mRNA level of HDAC4 in DU-145 cells; format: cell-based, human; settings: DU145 cells, 24 h; compound 4 at 1 µM, compound 11 at 6 µM; normalized to B2M, 2^−∆∆Ct vs vehicle (1.00); mean ± SEM
Description: as §4, §5

GSR = assay: RT-qPCR mRNA level of GSR in DU-145 cells; format: cell-based, human; settings: DU145 cells, 24 h; compound 4 at 1 µM, compound 11 at 6 µM; normalized to B2M, 2^−∆∆Ct vs vehicle (1.00); mean ± SEM
Description: as §4, §5

Bcl-2 = assay: RT-qPCR mRNA level of Bcl-2 in DU-145 cells; format: cell-based, human; settings: DU145 cells, 24 h; compound 4 at 1 µM, compound 11 at 6 µM; normalized to B2M, 2^−∆∆Ct vs vehicle (1.00); mean ± SEM
Description: as §4, §5

CDC25A = assay: RT-qPCR mRNA level of CDC25A in DU-145 cells; format: cell-based, human; settings: DU145 cells, 24 h; compound 4 at 1 µM, compound 11 at 6 µM; normalized to B2M, 2^−∆∆Ct vs vehicle (1.00); mean ± SEM
Description: as §4, §5

mTOR = assay: RT-qPCR mRNA level of mTOR in DU-145 cells; format: cell-based, human; settings: DU145 cells, 24 h; compound 4 at 1 µM, compound 11 at 6 µM; normalized to B2M, 2^−∆∆Ct vs vehicle (1.00); mean ± SEM; * p < 0.05 vs vehicle
Description: as §4, §5

CCN2 = assay: RT-qPCR mRNA level of CCN2 in DU-145 cells; format: cell-based, human; settings: DU145 cells, 24 h; compound 4 at 1 µM, compound 11 at 6 µM; normalized to B2M, 2^−∆∆Ct vs vehicle (1.00); mean ± SEM
Description: as §4, §5

TNF = assay: RT-qPCR mRNA level of TNF in DU-145 cells; format: cell-based, human; settings: DU145 cells, 24 h; compound 4 at 1 µM, compound 11 at 6 µM; normalized to B2M, 2^−∆∆Ct vs vehicle (1.00); mean ± SEM
[8] = test system: MCF-7 human breast cancer cell line; design: method as in PMID 23167798; settings: cytotoxicity against MCF-7; cited from earlier work

IC50 range over the cancer cell lines [3] | SMILES | −E^I½ (mV) [1] [mV] | IC50 [2] [µM] | IC50 [4] [µM] | MSI (mean selective index) [5] | IC50 [6] [µM] | IC50 [7] [µM] | half-wave potential [1] [mV] | Relative expression level (mRNA level) TP53 (TP53) | Relative expression level (mRNA level) HDAC4 (HDAC4) | Relative expression level (mRNA level) GSR (GSR) | Relative expression level (mRNA level) Bcl-2 (Bcl-2) | Relative expression level (mRNA level) CDC25A (CDC25A) | Relative expression level (mRNA level) mTOR (mTOR) | Relative expression level (mRNA level) CCN2 (CCN2) | Relative expression level (mRNA level) TNF (TNF) | IC50 [8] [µM]
almost devoid of activity | CCCCCCCCCC(=O)C1=C(Nc2ccccc2)C(=O)c2ccccc2C1=O [Compound 2, 2-(Phenylamino)-3-decanoylnaphthalene-1,4-dione] | 480 | 79.8 ± 9.74 | > 100 | < 0.8 | > 100 | > 100 | – | – | – | – | – | – | – | – | – | –
almost devoid of activity | CCCCCCCCCCCC(=O)C1=C(Nc2ccccc2)C(=O)c2ccccc2C1=O [Compound 3, 2-(Phenylamino)-3-dodecanoylnaphthalene-1,4-dione] | 484 | > 100 | > 100 | 1.0 | > 100 | > 100 | – | – | – | – | – | – | – | – | – | –
– | O=C(C1=C(Nc2ccccc2)C(=O)c2ccccc2C1=O)c1ccccc1 [Compound 4, 2-(Phenylamino)-3-benzoylnaphthalene-1,4-dione] | 695 | 45.2 ± 6.59 | 15.8 ± 0.9 | 6.2 | 5.16 ± 0.16 | 0.82 ± 0.1 | −695 | 0.94 ± 0.04 | 0.91 ± 0.05 | 0.95 ± 0.05 | 0.81 ± 0.05 | 1.09 ± 0.10 | 0.84 ± 0.06 | 0.95 ± 0.03 | 1.20 ± 0.08 | –
– | O=C(C1=C(Nc2ccccc2)C(=O)c2ccccc2C1=O)c1ccco1 [Compound 11] | 578 | > 100 | 11.7 ± 0.84 | 13.7 | 4.64 ± 0.23 | 5.45 ± 0.21 | −578 | 0.87 ± 0.05 | 0.81 ± 0.07 | 0.94 ± 0.06 | – | 0.90 ± 0.05 | – | 0.95 ± 0.09 | 0.93 ± 0.08 | –
– | O=C(C1=C(Nc2ccccc2)C(=O)c2ccccc2C1=O)c1ccco1 [compound V] | – | – | – | – | – | – | – | – | – | – | – | – | – | – | – | 1.5
